Consider 30 compounds from PubChem BioAssay (NCI).

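Results reflect a 48-hour exposure of cells in 96-well plates to compound at five concentrations. TGI is the concentration that stops growth completely.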 *1 amine or outer side, *2 acyl side, *3 side chain or, on linkers, in order; H or OH if unused. Where a SMILES comes first, the peptide text is derived from it. Bridges are numbered along the chain shown (N, C = ends). [ ]: non-standard residue; d: D form. ξ: configuration not given here. X4 = CCC(C)C(N[*:1])C(O)CC(=O)O[C@H](C(=O)C(C)C(=O)[*:2])C(C)C; NMeY = CN[C@@H](Cc1ccc(O)cc1)C(=O)O; ξNMeL = CNC(CC(C)C)C(=O)O; ξT = CC(O)C(N)C(=O)O A value given as a limit tells only on which side of the number the result lay.

Assay in all cases: NCI anticancer screen, dose series, 48 h
The test system of assay [1] is HOP-62 NSCLC.
Assay [2] relates to HOP-92 NSCLC.
Assay [3] concerns HS 578T breast.
The test system of assay [4] is M14 melanoma.
Assay [5] deals with MDA-MB-231 breast.
For assay [6], the system named is MDA-N.
Assay [7] deals with NCI-H23 lung.
The subject of assay [8] is PC-3 prostate.
Assay [9] relates to RXF 393 renal.
For assay [10], the system named is SNB-19 CNS.

On to `O=c1[nH]nc(Cc2ccc(Cl)cc2)n1O`, for which the TGI in [1], in assay [2], in assay [3], in assay [4], in assay [5] and in [6] was over 100 µM throughout. The TGI in assay [7], in assay [8], in assay [9] and in assay [10] was over 100 µM each time.

Regarding `COc1ccc(-c2c(C#N)c(-c3ccccc3)n(NS(=O)(=O)c3ccccc3)c(=O)c2C#N)cc1`, the TGI in assay [1], in assay [2], in assay [3], in assay [4], in [5] and in assay [6] was over 100 µM in each case. For the same compound, the TGI in assay [8], in assay [9] and in assay [10] was over 100 µM throughout.

Turning to `CCOP(=O)(OCC)C(Nc1ccc(F)cc1)c1cccc([N+](=O)[O-])c1` (configuration not stated), the TGI in [1], in assay [2], in assay [3], in assay [4], in [5] and in assay [6] was over 100 µM throughout. Moreover, the TGI in assay [7], in [8], in [9] and in [10] was over 100 µM each time.

`CC#CC(O)(C(=O)OC1CCCN(C)C1)C1=CC=CCC1` (configuration not stated): the TGI in assay [1], in [2], in [3], in assay [4], in [5] and in [6] was over 100 µM throughout. The TGI in assay [7], in [8], in assay [9] and in assay [10] was over 100 µM throughout.

Turning to `CCOC(=O)C1=C(C)NC(=S)NC1c1cccc(O)c1` (configuration not stated), the TGI in assay [1] was over 100 µM; in assay [2], over 84.3 µM; in assay [3], over 100 µM; in assay [4] it was 60.5 µM; in assay [5], over 90 µM; in [6] it was 39.3 µM. Also, the TGI is over 100 µM in [7], over 89.6 µM in [8], 65.7 µM in assay [9] and over 100 µM in assay [10].

For `CSC(=NC1=NC(C(F)(F)F)(C(F)(F)F)N=C(c2ccccc2)O1)SC`, the TGI amounted to 59 µM in assay [1]; 49.2 µM in [2]; 72.5 µM in assay [3]; 54.6 µM in assay [4]; 88.1 µM in [5]; 41.7 µM in assay [6]. Moreover, the TGI in [7] was 65.5 µM; in [8], 38.9 µM; in assay [9], 24.5 µM; in assay [10], over 100 µM.

In the case of `CN(C(=O)c1ccc(Cl)s1)C(=S)N(C)C(=O)c1ccc(Cl)s1`, the TGI in [1], in [2], in assay [3], in assay [4], in assay [5] and in [6] was over 10 µM throughout. In addition, the TGI in [7], in [8], in [9] and in [10] was over 10 µM each time.

For `N#CCCN(CCCN(C(=O)Nc1ccccc1)c1ccccc1)C(=O)Nc1ccccc1`, the TGI in [1], in [2], in assay [4], in [5], in [6] and in assay [7] was over 100 µM each time. Besides, the TGI in assay [8], in assay [9] and in assay [10] was over 100 µM each time.

As to `NC(=O)CC(Nc1ncc2c(n1)-c1ccccc1OC2)C(=O)O` (configuration not stated), the TGI in assay [1], in [2], in assay [3], in [4], in assay [5] and in assay [6] was over 100 µM throughout. In addition, the TGI in assay [7], in assay [8], in [9] and in [10] was over 100 µM each time.

Take `O=C(/C=C/c1ccc([N+](=O)[O-])cc1)c1nc2ccccc2[nH]1`: the TGI in assay [1] is over 100 µM; in [2], over 100 µM; in [3], over 100 µM; in assay [4], over 100 µM; in assay [5], over 57.2 µM; in [6] it was over 100 µM. For the same compound, the TGI in [8], in assay [9] and in assay [10] was over 100 µM throughout.

With `CCCCN(c1ccccc1)c1ncnc2c1cnn2C`, the TGI in [1] is over 100 µM; in assay [2], over 100 µM; in assay [3], 76.4 µM; in assay [4] it was over 100 µM; in assay [5], over 100 µM; in assay [6] it was over 100 µM. Moreover, the TGI was over 100 µM in assay [7], over 100 µM in assay [8], 89.4 µM in assay [9] and over 100 µM in assay [10].

As to `CC(C)n1c(=O)n(-c2ccccc2)n(C(C)(C)C)c1=O`, the TGI in [1], in assay [2], in assay [3], in [4], in assay [5] and in [6] was over 100 µM in each case. The TGI in [7], in [8], in assay [9] and in assay [10] was over 100 µM in each case.

With `O=C1c2ccccc2CC12Cc1ccc3c(c1C2)CCC3` (configuration not stated), the TGI amounted to 69.5 µM in assay [1]; 34.9 µM in assay [2]; 83.4 µM in [3]; 49.1 µM in assay [4]; 47.1 µM in assay [5]; 44.4 µM in assay [6]. The TGI in assay [7] is over 100 µM; in assay [8], over 100 µM; in [9], 38.7 µM; in [10] it was over 100 µM.

In the case of `Cc1ccc2c(c1)OC1Nc3ccccc3C1=C2O` (configuration not stated), the TGI in [1] was over 100 µM; in assay [2] it was over 100 µM; in assay [3], over 100 µM; in assay [4] it was 68 µM; in assay [5], 69.4 µM; in [6], 68.1 µM. Moreover, the TGI is 74.6 µM in assay [7], 39.6 µM in assay [8], 72.4 µM in [9] and over 100 µM in assay [10].

Consider `COc1cc(C2C3=C(COC3=O)OC(C)(C)Oc3cc4c(cc32)OCO4)cc(OC)c1OC` (configuration not stated), for which the TGI is over 100 µM in [1]; over 100 µM in assay [2]; over 100 µM in assay [3]; over 100 µM in assay [5]; 3.56 µM in assay [6]; over 100 µM in assay [7]. The TGI in [8] was over 100 µM.

As for `N#Cc1c2c(c(N3CCOCC3)n3c1nc1ccccc13)CCCC2`, the TGI in [2] was 38.8 µM; in [3] it was over 100 µM; in [4], 44.4 µM; in assay [5], 54.7 µM; in [6], 38.7 µM; in [7] it was 47.3 µM. Moreover, the values for the TGI in assay [8] and in assay [10] were 50.3 µM and 32 µM, respectively.

As to `O=C1NC(N/N=C\c2ccccc2)=N/C1=C/c1ccc(Cl)cc1`, the TGI in assay [1] was 42 µM; in assay [3], 51.4 µM; in [4] it was over 100 µM; in assay [5] it was over 100 µM; in assay [6], over 100 µM; in assay [7], 39.9 µM. The TGI in assay [8] was determined as 43.4 µM; in assay [9], 47.3 µM; in assay [10], 35.9 µM.

For the compound `CSc1ncc2c(n1)-c1ccccc1OC2N1CCCC1` (configuration not stated), the TGI in assay [2], in assay [3], in assay [4], in [5], in [6] and in [7] was over 100 µM each time. For the same compound, the TGI in assay [8], in assay [9] and in assay [10] was over 100 µM each time.

`O=C(NNC(=S)Nc1ccccc1)c1csc(NC(=S)NC2CCCCC2)n1`: the TGI in assay [1], in assay [2], in [4], in assay [5], in assay [6] and in [7] was over 100 µM in each case. Moreover, in assay [8], the TGI was over 100 µM.

Regarding `O=C(O)c1ccc(Nc2nc3cc(C(F)(F)F)ccc3nc2C(=O)O)cc1`, the TGI in [1], in [3], in assay [5], in [6], in [7] and in assay [8] was over 100 µM throughout. Further, the TGI in [9] and in assay [10] was over 100 µM in each case.

With `O=C(NCCNCCO)N/N=C/c1ccc(Cl)cc1`, the TGI in assay [1], in assay [3], in assay [4], in assay [5], in assay [6] and in assay [7] was over 100 µM in each case. In addition, the TGI in [8] and in assay [10] was over 100 µM throughout.

Regarding `O=C(c1ccco1)N(C(=S)OCc1ccccn1)c1ccccc1`, the TGI in assay [1], in assay [3], in assay [4], in assay [5], in [6] and in [7] was over 100 µM throughout. Moreover, the TGI in assay [8], in assay [9] and in [10] was over 100 µM in each case.

With `O=C(N=Nc1ccccc1Br)NNc1ccccc1Br`, the TGI in assay [1], in assay [4], in assay [5], in assay [6], in assay [7] and in assay [8] was over 100 µM each time. For the same compound, in assay [10], the TGI was over 100 µM.

`CCC(C)C1NC(=O)C(NC(=O)C(CC(C)C)N(C)C(=O)[C@@H]2CCCN2)C(C)OC(=O)[C@H](Cc2ccc(OC)cc2)N(C)C(=O)[C@@H]2CCCN2C(=O)[C@H](CC(C)C)NC(=O)C(C)C(=O)[C@H](C(C)C)OC(=O)CC1O` (some centres not stated) (H-P[ξNMeL][ξT][X4]LP[NMeY](Me); ester 3-C): the TGI in assay [1] worked out at 0.00782 µM; in assay [2] it was 0.0187 µM; in assay [4], 0.00865 µM; in [6], 0.0107 µM; in assay [7] it was 0.00218 µM; in assay [8], 0.0115 µM. This compound gave a TGI in [10] of 0.0398 µM.

As to `COC(OC)C(O)C1OC=CC1n1cnc2c(N)ncnc21` (configuration not stated), the TGI in assay [1], in assay [2], in assay [3], in [5], in assay [6] and in assay [7] was over 100 µM each time. For the same compound, the TGI in assay [8] and in assay [9] was over 100 µM each time.

In the case of `COC(=O)C1(C(=O)OC)N=C(C)OC1C(C)C` (configuration not stated), the TGI in assay [1], in [2], in [4], in assay [6], in assay [7] and in assay [8] was over 100 µM each time. Further, the TGI in assay [9] and in assay [10] was over 100 µM in each case.

Consider `CN1CC(c2ccccc2)N(CCCCN2CC(c3ccccc3)N(C)CC2c2ccccc2)CC1c1ccccc1` (configuration not stated), for which the TGI in assay [1], in assay [2], in assay [3], in assay [4], in assay [5] and in assay [6] was over 100 µM each time. In addition, the TGI in assay [8] is over 100 µM; in assay [9], 71.1 µM; in assay [10] it was over 100 µM.

As to `O=C1OS2(OCc3cccc4cccc2c34)c2ccccc21` (configuration not stated), the TGI in assay [1], in [2], in assay [4], in assay [5], in [6] and in [7] was over 100 µM each time. Also, the TGI in [8] and in assay [10] was over 100 µM in each case.

As to `Cc1ccc(O)c(C2=NNC(c3cccc(Br)c3)C2)c1` (configuration not stated), the TGI was over 100 µM in assay [1]; 92.7 µM in assay [2]; over 100 µM in assay [3]; over 100 µM in assay [4]; over 100 µM in [6]; over 100 µM in [7]. For the same compound, the TGI in assay [8] was over 100 µM; in [9] it was over 100 µM; in assay [10] it was 76.3 µM.

`OC1OC(c2ccco2)C(F)(F)C(F)(F)C1(F)F` (configuration not stated): the TGI was over 100 µM in assay [1]; over 100 µM in assay [2]; 76.2 µM in assay [3]; over 100 µM in assay [4]; over 100 µM in [5]; over 100 µM in assay [6]. In addition, the TGI in assay [8], in assay [9] and in assay [10] was over 100 µM throughout.
